According to PubChem BioAssay AID330 (DTP/NCI, 2004):
Values joined by “and” are separate entries in the source; they are usually repeats but may differ in a detail not shown here. Identical values can stand only once. Inconclusive results and toxic doses are left out.

Tested on: P388 leukemia ip, CD2F1 mice, survival T/C
Test: NCI In Vivo Anticancer Drug Screen. Data for tumor model P388 Leukemia (intraperitoneal) in CD2F1 (CDF1) mice
Conditions: endpoint: median survival time, higher = longer survival
Method in brief: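 Mice carrying the transplanted tumor received test compound or vehicle. Survival was recorded in each group, and the value is the treated-group measurement divided by that of the vehicle-treated control group.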

[1] = dose: 100.0 mg/kg/injection, schedule: Q04DX003 (ip), vehicle: saline with Tween-80
[2] = dose: 200.0 mg/kg/injection, schedule: Q04DX003 (ip), vehicle: saline with Tween-80
[3] = dose: 50.0 mg/kg/injection, schedule: Q01DX009 (ip), vehicle: saline with Tween-80
[4] = dose: 50.0 mg/kg/injection, schedule: Q01DX005 (ip), vehicle: Klucel (hydroxypropylcellulose) (HPC)
[5] = dose: 100.0 mg/kg/injection, schedule: Q01DX005 (ip), vehicle: Klucel (hydroxypropylcellulose) (HPC)
[6] = dose: 200.0 mg/kg/injection, schedule: Q01DX005 (ip), vehicle: Klucel (hydroxypropylcellulose) (HPC)
[7] = dose: 60.0 mg/kg/injection, schedule: Q01DX005 (ip), vehicle: Klucel (hydroxypropylcellulose) (HPC)
[8] = dose: 120.0 mg/kg/injection, schedule: Q01DX005 (ip), vehicle: Klucel (hydroxypropylcellulose) (HPC)
[9] = dose: 240.0 mg/kg/injection, schedule: Q01DX005 (ip), vehicle: Klucel (hydroxypropylcellulose) (HPC)
[10] = dose: 400.0 mg/kg/injection, schedule: Q04DX003 (ip), vehicle: saline with Tween-80
[11] = dose: 100.0 mg/kg/injection, schedule: Q01DX009 (ip), vehicle: saline with Tween-80
[12] = dose: 200.0 mg/kg/injection, schedule: Q01DX009 (ip), vehicle: saline with Tween-80

CC(=O)OCc1cc[n+](C)cc1
T/C (dose: 12.5 mg/kg/injection, schedule: Q01DX009 (ip), vehicle: water): 100 % of control
T/C (dose: 25.0 mg/kg/injection, schedule: Q01DX009 (ip), vehicle: water): 105 % of control
T/C (dose: 50.0 mg/kg/injection, schedule: Q01DX009 (ip), vehicle: water): 101 % of control
T/C (dose: 100.0 mg/kg/injection, schedule: Q01DX009 (ip), vehicle: water): 102 % of control
T/C (dose: 200.0 mg/kg/injection, schedule: Q01DX009 (ip), vehicle: water): 93 % of control
T/C (dose: 400.0 mg/kg/injection, schedule: Q01DX009 (ip), vehicle: water): 112 % of control

COc1cccc2c1cc([N+](=O)[O-])c1c(C(=O)O)cc3c(c12)OCO3
T/C (dose: 2.5 mg/kg/injection, schedule: Q01DX009 (ip), vehicle: Klucel (hydroxypropylcellulose) (HPC)): 118 % of control
T/C (dose: 2.5 mg/kg/injection, schedule: Q01DX009 (ip), vehicle: saline): 108 % of control
T/C (dose: 5.0 mg/kg/injection, schedule: Q01DX009 (ip), vehicle: Klucel (hydroxypropylcellulose) (HPC)): 118 % of control
T/C (dose: 5.0 mg/kg/injection, schedule: Q01DX009 (ip), vehicle: saline): 117 % of control
T/C (dose: 10.0 mg/kg/injection, schedule: Q01DX009 (ip), vehicle: saline): 117 % of control

C=C1C[C@@H]2[C@H](C1=O)[C@@H]1CC[C@H]3O[C@]31C2(C)C
T/C (dose: 50.0 mg/kg/injection, schedule: Q04DX002 (ip), vehicle: Klucel (hydroxypropylcellulose) (HPC)): 106 % of control
T/C (dose: 100.0 mg/kg/injection, schedule: Q04DX002 (ip), vehicle: Klucel (hydroxypropylcellulose) (HPC)): 101 % of control
T/C (dose: 200.0 mg/kg/injection, schedule: Q04DX002 (ip), vehicle: Klucel (hydroxypropylcellulose) (HPC)): 100 % of control

O=C1C(Br)CCC1(c1ccccc1)c1ccccc1 (stereo unspecified)
T/C (dose: 100.0 mg/kg/injection, schedule: Q01DX001 (ip), vehicle: Klucel (hydroxypropylcellulose) (HPC)): 102 % of control
T/C (dose: 200.0 mg/kg/injection, schedule: Q01DX001 (ip), vehicle: Klucel (hydroxypropylcellulose) (HPC)): 106 % of control
T/C (dose: 400.0 mg/kg/injection, schedule: Q01DX001 (ip), vehicle: Klucel (hydroxypropylcellulose) (HPC)): 102 % of control

O=C(N1CCC2(CC1)SSC1(CCN(C(=O)C(F)(F)F)CC1)S2)C(F)(F)F
T/C [1]: 87 % of control
T/C [2]: 91 % of control

C#CC(OC(=O)NC1CCCCC1)(c1ccccc1)c1ccccc1
T/C (dose: 4.4 mg/kg/injection, schedule: Q01DX009 (ip), vehicle: saline with Tween-80): 100 % of control
T/C (dose: 6.6 mg/kg/injection, schedule: Q01DX009 (ip), vehicle: saline with Tween-80): 98 % of control
T/C (dose: 10.0 mg/kg/injection, schedule: Q01DX009 (ip), vehicle: saline with Tween-80): 93 % of control
T/C (dose: 15.0 mg/kg/injection, schedule: Q01DX009 (ip), vehicle: saline with Tween-80): 100 % of control
T/C (dose: 22.0 mg/kg/injection, schedule: Q04DX003 (ip), vehicle: saline with Tween-80): 118 % of control
T/C (dose: 25.0 mg/kg/injection, schedule: Q04DX003 (ip), vehicle: saline with Tween-80): 108 % of control
T/C (dose: 33.0 mg/kg/injection, schedule: Q01DX009 (ip), vehicle: saline with Tween-80): 163 % of control
T/C (dose: 33.0 mg/kg/injection, schedule: Q04DX003 (ip), vehicle: saline with Tween-80): 122 % of control
T/C [3]: 102 % of control
T/C (dose: 75.0 mg/kg/injection, schedule: Q04DX003 (ip), vehicle: saline with Tween-80): 163 % of control

COc1ccn(C2OC(COC(=O)c3ccccc3)C(OC(=O)c3ccccc3)C2OC(=O)c2ccccc2)c(=O)n1 (stereo unspecified)
T/C (dose: 25.0 mg/kg/injection, schedule: Q01DX005 (ip), vehicle: Klucel (hydroxypropylcellulose) (HPC)): 97 % of control
T/C [4]: 88 % of control and 93 % of control
T/C [5]: 90 % of control
T/C [6]: 92 % of control

CCCCOc1ccc(-n2c(=O)[nH]c3ccccc3c2=O)cc1
T/C [4]: 96 % of control
T/C [5]: 100 % of control
T/C [6]: 96 % of control

COC1C(CO)OC(Oc2ccc(C(=C3CCCCC3)c3ccc(O)cc3)cc2)C(O)C1O (stereo unspecified)
T/C (dose: 50.0 mg/kg/injection, schedule: Q01DX009 (ip), vehicle: saline): 95 % of control
T/C (dose: 100.0 mg/kg/injection, schedule: Q01DX009 (ip), vehicle: saline): 95 % of control
T/C (dose: 200.0 mg/kg/injection, schedule: Q01DX009 (ip), vehicle: saline): 94 % of control

CCC1=C(c2cccc(OC(C)=O)c2)C(C)c2ccc(OC(C)=O)cc21 (stereo unspecified)
T/C [7]: 96 % of control
T/C [8]: 95 % of control
T/C [9]: 95 % of control

O=C(/C=C/c1ccc(F)cc1)c1ccc(Cl)cc1
T/C [1]: 90 % of control
T/C [2]: 86 % of control
T/C [10]: 100 % of control

[Cl][Co][Cl].c1ccc2[nH]cnc2c1.c1ccc2[nH]cnc2c1
T/C [4]: 111 % of control
T/C [5]: 111 % of control

O=C1CC2(CCc3ccccc32)C(=O)N1CCN1CCOCC1 (stereo unspecified)
T/C (dose: 50.0 mg/kg/injection, schedule: Q01DX005 (ip), vehicle: saline with Tween-80): 100 % of control
T/C (dose: 100.0 mg/kg/injection, schedule: Q01DX005 (ip), vehicle: saline with Tween-80): 95 % of control
T/C (dose: 200.0 mg/kg/injection, schedule: Q01DX005 (ip), vehicle: saline with Tween-80): 105 % of control

COc1cc(C(C)(C)C)cc(OC)c1Br
T/C [3]: 101 % of control
T/C [11]: 88 % of control
T/C [12]: 90 % of control

O=c1c2ccccc2c(=O)c2c1cc(Cl)c1[nH]c3c([nH]c12)c(Cl)cc1c(=O)c2ccccc2c(=O)c13
T/C [4]: 97 % of control
T/C [5]: 96 % of control
T/C [6]: 94 % of control

CC(=O)C1C(=O)C(=O)N(c2ccccc2C)C1=O (stereo unspecified)
T/C (dose: 50.0 mg/kg/injection, schedule: Q01DX009 (ip), vehicle: Klucel (hydroxypropylcellulose) (HPC)): 105 % of control
T/C (dose: 60.0 mg/kg/injection, schedule: Q01DX005 (ip), vehicle: saline with Tween-80): 103 % of control
T/C (dose: 100.0 mg/kg/injection, schedule: Q01DX009 (ip), vehicle: Klucel (hydroxypropylcellulose) (HPC)): 107 % of control
T/C (dose: 120.0 mg/kg/injection, schedule: Q01DX005 (ip), vehicle: saline with Tween-80): 100 % of control
T/C (dose: 200.0 mg/kg/injection, schedule: Q01DX009 (ip), vehicle: Klucel (hydroxypropylcellulose) (HPC)): 110 % of control

C[Si](C)(CC[Si](C)(C)OS(C)(=O)=O)OS(C)(=O)=O
T/C [4]: 101 % of control
T/C [5]: 99 % of control
T/C [6]: 89 % of control

Clc1ccc(C2(c3ccncc3)OCCO2)cc1
T/C (dose: 75.0 mg/kg/injection, schedule: Q01DX001 (ip), vehicle: saline): 109 % of control
T/C (dose: 150.0 mg/kg/injection, schedule: Q01DX001 (ip), vehicle: saline): 104 % of control
T/C (dose: 300.0 mg/kg/injection, schedule: Q01DX001 (ip), vehicle: saline): 90 % of control

C=COS(=O)O
T/C (dose: 3.12 mg/kg/injection, schedule: Q01DX009 (ip), vehicle: saline): 104 % of control
T/C (dose: 6.25 mg/kg/injection, schedule: Q01DX009 (ip), vehicle: saline): 104 % of control
T/C (dose: 12.5 mg/kg/injection, schedule: Q01DX009 (ip), vehicle: saline): 105 % of control

O=C(/C=C\c1cccc2ccccc12)c1ccccn1
T/C (dose: 100.0 mg/kg/injection, schedule: Q01DX001 (ip), vehicle: saline with Tween-80): 106 % of control
T/C (dose: 200.0 mg/kg/injection, schedule: Q01DX001 (ip), vehicle: saline with Tween-80): 112 % of control
T/C (dose: 400.0 mg/kg/injection, schedule: Q01DX001 (ip), vehicle: saline with Tween-80): 112 % of control

O=C(O)CCCCc1ccc(CCCCC(=O)O)c2ccccc12
T/C [1]: 103 % of control
T/C [2]: 102 % of control
T/C [10]: 99 % of control

CCCCCCCCCCCCCCCCN1CCC2SC3CN(CCCCCCCCCCCCCCCC)CCC3SC2C1 (stereo unspecified)
T/C [3]: 99 % of control
T/C [11]: 96 % of control
T/C [12]: 97 % of control

COc1ccc2c(N)c3c4ccccc4cc[n+]3cc2c1OC
T/C (dose: 3.13 mg/kg/injection, schedule: Q04DX003 (ip), vehicle: water): 106 % of control and 112 % of control
T/C (dose: 6.25 mg/kg/injection, schedule: Q04DX003 (ip), vehicle: water): 106 % of control and 114 % of control
T/C (dose: 12.5 mg/kg/injection, schedule: Q04DX003 (ip), vehicle: water): 112 % of control
T/C (dose: 25.0 mg/kg/injection, schedule: Q04DX003 (ip), vehicle: water): 121 % of control

O=C1C2=C(Nc3cc([N+](=O)[O-])ccc3N2)OC1c1ccc(C2OC3=C(Nc4ccc([N+](=O)[O-])cc4N3)C2=O)cc1 (stereo unspecified)
T/C [7]: 102 % of control
T/C [8]: 96 % of control
T/C [9]: 99 % of control
